1 molecule from US6706855B1, “Antimicrobial polymer” (Avecia Limited, priority 1999, dated 2004) can be followed below.

Data set [1] deals with Bacillus subtilis NCIB 1650. Kind of data set: Minimum Inhibitory Concentration (MIC) against Bacillus subtilis. It counts as cell-based. As to conditions: Bacteria. On the procedure:
(§1) The Minimum Inhibitory Concentration (MIC) against a range of fungi and bacteria were determined for each of the antimicrobial copolymers prepared in Examples 1 to 4 and Comparative Example A. The MIC results are shown in Table 3: […]

Data set [2] deals with Pseudomonas fluorescens (with Lux AB gene) our ref D481. Briefly: Minimum Inhibitory Concentration (MIC) against Pseudomonas fluorescens. It counts as cell-based. The note with it: Bacteria. The protocol: as §1
The subject of data set [3] is Staphylococcus aureus NCIB 9518. Kind of data set: Minimum Inhibitory Concentration (MIC) against Staphylococcus aureus. It counts as cell-based. As to conditions: Bacteria. The protocol:
as §1

The test system of data set [4] is Pseudomonas aeruginosa NCIB 10421. Kind of data set: Minimum Inhibitory Concentration (MIC) against Pseudomonas aeruginosa. It counts as cell-based. As to conditions: Bacteria. On the procedure:
as §1

In data set [5] the test system is Escherichia coli NCIB 9132. Kind of data set: Minimum Inhibitory Concentration (MIC) against Escherichia coli. It counts as cell-based. As to conditions: Bacteria. The protocol:
as §1

Data set [6] has as its system Klebsiella pneumoniae ATCC 4352. Kind of data set: Minimum Inhibitory Concentration (MIC) against Klebsiella pneumoniae. The note with it: Bacteria. It counts as cell-based. On the procedure:
as §1

Data set [7] deals with Candida albicans NCYC 10231. Kind of data set: Minimum Inhibitory Concentration (MIC) against Candida albicans. As to conditions: Fungi. It counts as cell-based. The protocol:
as §1

For data set [8], the system named is a range of fungi and bacteria. Kind of data set: MIC against a range of fungi and bacteria, overall statement. It counts as cell-based. As to conditions: summary of Table 3; compared to Comparative Example A or to the copolymers. On the procedure: as §1
In data set [9] the test system is Penicillium funiculosum IMI 114933. Briefly: Minimum Inhibitory Concentration (MIC) against Penicillium funiculosum. It counts as cell-based. The note with it: Fungi. The protocol: as §1

As to `NCCCCCCNc1ccc2c3c(cccc13)C(=O)N(CCCCCCN)C2=O` [Marker 1, N-(6-aminohexyl)-4-(6-aminohexylamino)-1,8-naphthalimide], the melting point – broadly, the temperature, or range, at which the solid turns liquid – lay within 113.6 to 114.9 °C. Further, in data set [1], the “MIC Bs” value was 500. The “MIC Ps.fl” value in [2] is 500. In addition, the “MIC Sa” value in data set [3] is recorded as 32. Also, the “MIC Psa” value in data set [4] came to 999. Besides, the “MIC Ec” value in data set [5] was found to be 500. For the same molecule, in data set [6], the “MIC K.pn” value worked out at 999. In addition, the “MIC Ca” value in data set [7] came to 999. In addition, the “antimicrobial effect (MIC, in words)” value in data set [8] was “little or no antimicrobial effect”. For the same molecule, in data set [9], the “MIC Pp” value is 999.
